Earlier results as cited in patent publication US20230310615A1, “OPHTHALMIC COMPOSITIONS” (Alcon Inc., priority 2022, published 2023).

Conditions: dissociation constant of the dibasic compound

In the case of `OCC(CO)(CO)NCCCNC(CO)(CO)CO` [bis-TRIS-propane, 1,3-bis(tris[hydroxymethyl]methylamino)propane], the pKa1 is given as 6.8 and the pKa2 is given as 9.5.
